ChEMBL document CHEMBL4024712, “Synthesis, stability and mechanistic studies of potent anticryptococcal hexapeptides” (Eur J Med Chem, 2017)
≈ marks a conversion by molar mass, not a printed value. Calls of active or inactive are those of the source. The calls are words filed in the database; no cut-off is given here. Non-standard residues stand in square brackets, D forms with d. Residues, ends and D or L forms follow the SMILES beside them. Ala(9-anthryl) = N[C@@H](Cc1c2ccccc2cc2ccccc12)C(=O)O; His(τ-Bzl) = N[C@@H](Cc1cn(Cc2ccccc2)cn1)C(=O)O; Bta = N[C@@H](Cc1csc2ccccc12)C(=O)O; Cha = N[C@@H](CC1CCCCC1)C(=O)O; Orn = NCCC[C@H](N)C(=O)O

Assays:
[1] = tested on: Candida albicans; assay: Antifungal activity against Candida albicans by broth microdilution method; assay type: functional
[2] = tested on: Cryptococcus neoformans; assay: Antifungal activity against Cryptococcus neoformans ATCC 90113 after 68 to 72 hrs by Alamar blue assay; assay type: functional
[3] = tested on: Vero; assay: Cytotoxicity against African green monkey Vero cells up to 10 ug/ml after 48 hrs by neutral red dye based assay; assay type: cell-based; conditions: chlorocebus sabaeus
[4] = tested on: Lipid bilayer; assay: Binding affinity to EYPC/cholesterol small unilamellar vesicles at 0.1 uM by tryptophan fluorescence quenching assay; assay type: ADME
[5] = tested on: Pichia kudriavzevii; assay: Fungicidal activity against Candida krusei ATCC 6258 after 18 to 24 hrs by Alamar blue assay; assay type: functional
[6] = tested on: Nakaseomyces glabratus; assay: Antifungal activity against Candida glabrata ATCC 90030 after 18 to 24 hrs by Alamar blue assay; assay type: functional; conditions: for MIC: Nakaseomyces glabratus, ATCC 90030
[7] = tested on: Cryptococcus neoformans; assay: Induction of cell lysis in Cryptococcus neoformans ATCC 90113 biofilm assessed as cytoplasm leakage at MIC after 1 hr by photungstic acid/ammonium molybdate/uranyl acetatebased scanning based transmission electron microscopic method; assay type: functional
[8] = tested on: Pseudomonas aeruginosa; assay: Anti-bacterial activity against Pseudomonas aeruginosa ATCC 27853 by CLSI method; assay type: functional
[9] = Selectivity index ratio of cytotoxic concentration against African green monkey Vero cells to IC50 for Cryptococcus neoformans ATCC 90113; assay type: toxicity; conditions: read-out: Selectivity Index
[10] = tested on: Lipid bilayer; assay: Binding affinity to EYPC/EYPG small unilamellar vesicles at 0.1 uM by tryptophan fluorescence quenching assay
[11] = tested on: Aspergillus fumigatus; assay: Antifungal activity against Aspergillus fumigatus ATCC 90906 after 68 to 72 hrs by Alamar blue assay; assay type: functional
[12] = tested on: Mycobacterium intracellulare; assay: Anti-bacterial activity against Mycobacterium intracellulare ATCC 23068 after 68 to 72 hrs by Alamar blue assay; assay type: functional, cell-based
[13] = tested on: Candida albicans; assay: Antifungal activity against Candida albicans ATCC 90028 after 18 to 24 hrs by Alamar blue assay; assay type: functional
[14] = tested on: Cryptococcus neoformans; assay: Induction of cell lysis in Cryptococcus neoformans ATCC 90113 biofilm assessed as formation of holes at MIC after 1 hr by osmium tetroxide staining based scanning electron microscopic method; assay type: functional
[15] = Proteolytic stability assessed as trypsin (unknown origin)-mediated compound hydrolysis at compound to trypsin ratio of 0.5 to […] measured after 24 hrs by RP-HPLC method; assay type: ADME; conditions: human
[16] = tested on: Escherichia coli; assay: Anti-bacterial activity against Escherichia coli ATCC 35218 by CLSI method; assay type: functional
[17] = tested on: Nakaseomyces glabratus; assay: Fungicidal activity against Candida glabrata ATCC 90030 after 18 to 24 hrs by Alamar blue assay; assay type: functional
[18] = tested on: Staphylococcus aureus; assay: Anti-bacterial activity against Staphylococcus aureus ATCC 29213 by CLSI method; assay type: functional; conditions: Staphylococcus aureus, ATCC 29213; for IC50: read-out: IC50
[19] = tested on: Staphylococcus aureus; assay: Anti-bacterial activity against methicillin-resistant Staphylococcus aureus ATCC 33591 by CLSI method; assay type: functional; conditions: Staphylococcus aureus, ATCC 33591
[20] = tested on: Candida albicans; assay: Fungicidal activity against Candida albicans ATCC 90028 after 18 to 24 hrs by Alamar blue assay; assay type: functional
[21] = tested on: Staphylococcus aureus; assay: Bactericidal activity against methicillin-resistant Staphylococcus aureus ATCC 33591 by CLSI method; assay type: functional
[22] = tested on: Cryptococcus neoformans; assay: Fungicidal activity against Cryptococcus neoformans ATCC 90113 after 68 to 72 hrs by Alamar blue assay; assay type: functional

Q: With `NCCCC[C@H](NC(=O)[C@@H](Cc1ccccc1)NC(=O)[C@H](Cc1ccccc1)NC(=O)[C@@H](Cc1ccccc1)NC(=O)[C@@H](Cc1c[nH]c2ccccc12)NC(=O)[C@@H](N)Cc1c[nH]cn1)C(N)=O` (H-H[dW][dF]F[dF]K-NH2) as the compound, how does the IC50 [1] read?
A: 6.8 µM

Q: Which MIC [2] does the source give for `CC[C@H](C)[C@H](NC(=O)[C@H](CC1CCCCC1)NC(=O)[C@H](Cc1c[nH]c2ccccc12)NC(=O)[C@@H](N)CCCN)C(=O)N[C@H](Cc1ccccc1)C(=O)N[C@@H](Cc1cn(Cc2ccccc2)cn1)C(N)=O` (H-[Orn]W[Cha]I[dF][His(τ-Bzl)]-NH2) here?
A: 0.63 µg/mL (≈ 0.657 µM)

Q: What about the Activity [3] of the same compound?
A: Non-Toxic

Q: What about the Activity [4] of the same compound?
A: Non-Toxic

Q: And the MFC [5]?
A: 10 µg/mL (≈ 10.4 µM)

Q: What about the IC50 [6] of the same compound?
A: Not Active

Q: What about the Activity [7] of the same compound?
A: Active

Q: What about the IC50 [8] of the same compound?
A: Not Active

Q: And the selectivity ratio [9]?
A: 21 to 25

Q: What about the Activity [10] of the same compound?
A: Active

Q: And the IC50 [11]?
A: Not Active

Q: And the IC50 [12]?
A: Not Active

Q: And the IC50 [13]?
A: Not Active

Q: What about the Activity [14] of the same compound?
A: Active

Q: And the Stability [15]?
A: Stable

Q: Which MIC [2] does the source give for `CC[C@H](C)[C@H](NC(=O)[C@H](CC1CCCCC1)NC(=O)[C@@H](Cc1c[nH]c2ccccc12)NC(=O)[C@@H](N)CCCN)C(=O)N[C@@H](Cc1c2ccccc2cc2ccccc12)C(=O)N[C@@H](Cc1cn(Cc2ccccc2)cn1)C(N)=O` (H-[Orn][dW][Cha]I[Ala(9-anthryl)][His(τ-Bzl)]-NH2) here?
A: 1.25 µg/mL (≈ 1.18 µM)

Q: And the IC50 [16]?
A: Not Active

Q: And the Activity [3]?
A: Non-Toxic

Q: What about the MFC [5] of the same compound?
A: 10 µg/mL (≈ 9.45 µM)

Q: What about the MIC [6] of the same compound?
A: 20 µg/mL (≈ 18.9 µM)

Q: And the IC50 [8]?
A: Not Active

Q: And the MFC [17]?
A: 20 µg/mL (≈ 18.9 µM)

Q: And the IC50 [11]?
A: Not Active

Q: And the MIC [18]?
A: 5 µg/mL (≈ 4.72 µM)

Q: And the IC50 [12]?
A: Not Active

Q: And the MIC [19]?
A: 10 µg/mL (≈ 9.45 µM)

Q: What about the MFC [20] of the same compound?
A: 20 µg/mL (≈ 18.9 µM)

Q: What about the MBC [21] of the same compound?
A: 10 µg/mL (≈ 9.45 µM)

Q: With `CC[C@H](C)[C@H](NC(=O)[C@H](CC1CCCCC1)NC(=O)[C@@H](Cc1c[nH]c2ccccc12)NC(=O)[C@@H](N)CCCN)C(=O)N[C@@H](Cc1csc2ccccc12)C(=O)N[C@@H](Cc1cn(Cc2ccccc2)cn1)C(N)=O` (H-[Orn][dW][Cha]I[Bta][His(τ-Bzl)]-NH2) as the compound, how does the MIC [2] read?
A: 1.25 µg/mL (≈ 1.23 µM)

Q: And the IC50 [16]?
A: Not Active

Q: And the Activity [3]?
A: Non-Toxic

Q: What about the MFC [5] of the same compound?
A: 20 µg/mL (≈ 19.7 µM)

Q: And the MIC [6]?
A: 20 µg/mL (≈ 19.7 µM)

Q: What about the IC50 [8] of the same compound?
A: Not Active

Q: And the MFC [17]?
A: 20 µg/mL (≈ 19.7 µM)

Q: What about the IC50 [11] of the same compound?
A: Not Active

Q: What about the IC50 [18] of the same compound?
A: 20 µg/mL (≈ 19.7 µM)

Q: What about the IC50 [12] of the same compound?
A: Not Active

Q: What about the IC50 [13] of the same compound?
A: Not Active

Q: Which results are given for `CC[C@H](C)[C@H](NC(=O)[C@H](CC1CCCCC1)NC(=O)[C@@H](Cc1c[nH]c2ccccc12)NC(=O)[C@@H](N)CCCN)C(=O)N[C@@H](CC1CCCCC1)C(=O)N[C@@H](Cc1cn(Cc2ccccc2)cn1)C(N)=O` (H-[Orn][dW][Cha]I[Cha][His(τ-Bzl)]-NH2)?
A: MFC [22]: 1.25 µg/mL (≈ 1.3 µM); IC50 [16]: Not Active; Activity [3]: Non-Toxic; Activity [4]: Non-Toxic; MFC [5]: 20 µg/mL (≈ 20.7 µM); MIC [6]: 20 µg/mL (≈ 20.7 µM); IC50 [8]: Not Active; selectivity ratio [9]: 21 to 25; Activity [10]: Active; IC50 [11]: Not Active; IC50 [18]: 17.5 µg/mL (≈ 18.1 µM); IC50 [12]: Not Active; MIC ([13]; Candida albicans, ATCC 90028): 20 µg/mL (≈ 20.7 µM); IC50 ([13]; Candida albicans, ATCC 90028, read-out: IC50): 17.4 µg/mL (≈ 18 µM); MFC [20]: 20 µg/mL (≈ 20.7 µM)
